Assay results: PubChem BioAssay AID1933 (Broad Institute, 2009)
Inconclusive results are not listed. Activity calls are given as the source filed them. The rule behind the calls is not given here.

Tested on: BJ-TERT fibroblast viability, ATP luminescence
Test: BJ-TERT fibroblast viability loss – cell-based, RAS-independent, luminescence, dose response (AID 1933)

SMILES	EC50
CCSc1nc2ccccc2n1C(=O)/C=C/c1ccc(OC)c(OC)c1	> 15 µM (inactive)
COc1cc2c(c(OC)c1OC)-c1ccc(O)c(=O)cc1C(NC(C)=O)CC2 (configuration not stated)	< 0.12 µM
